From patent EP2435433B1, “(DIHYDRO)IMIDAZOISO[5,1-A]QUINOLINES AS FSH RECEPTOR AGONISTS FOR THE TREATMENT OF FERTILITY DISORDERS” (Merck Sharp & Dohme B.V., priority 2009, dated 2010) come the findings set out here.

The experiment has as its target T1, human FSH receptor (Homo sapiens, UniProt P23945).
T1 construct: expressed in transfected cells; host or cells: Chinese Hamster Ovary (CHO) cells, stably transfected, cotransfected with CRE/promotor-firefly luciferase reporter
T1 sequence (P23945 18-695): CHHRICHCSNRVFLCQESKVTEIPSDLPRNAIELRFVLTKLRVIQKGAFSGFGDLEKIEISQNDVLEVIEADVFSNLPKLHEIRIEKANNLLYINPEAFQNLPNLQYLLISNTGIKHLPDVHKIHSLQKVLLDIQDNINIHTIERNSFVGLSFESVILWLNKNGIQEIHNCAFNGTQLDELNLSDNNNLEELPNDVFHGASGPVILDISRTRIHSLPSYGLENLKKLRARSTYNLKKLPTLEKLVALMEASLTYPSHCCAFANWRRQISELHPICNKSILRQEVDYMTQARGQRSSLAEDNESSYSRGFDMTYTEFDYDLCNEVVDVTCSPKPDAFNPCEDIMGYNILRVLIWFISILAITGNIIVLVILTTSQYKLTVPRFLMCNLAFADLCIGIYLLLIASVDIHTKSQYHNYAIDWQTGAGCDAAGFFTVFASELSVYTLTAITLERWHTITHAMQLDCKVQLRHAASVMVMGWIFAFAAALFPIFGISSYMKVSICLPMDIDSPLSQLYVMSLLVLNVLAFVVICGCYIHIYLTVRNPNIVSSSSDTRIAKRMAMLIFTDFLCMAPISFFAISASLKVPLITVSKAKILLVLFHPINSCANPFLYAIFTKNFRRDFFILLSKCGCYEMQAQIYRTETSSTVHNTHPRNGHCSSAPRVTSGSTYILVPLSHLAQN
The experiment can be described thus: Agonistic activity of compounds at the human FSH receptor expressed in CHO cells, CRE/luciferase reporter (hFSHRago (CHO luc)). The format is cell-based. The conditions noted are these: CHO cells stably transfected with the human FSH receptor and CRE/firefly luciferase reporter; 4 hours of incubation; half-maximal stimulation relative to the compound's own maximal effect; read-out: hFSHRago (CHO luc) EC50. The text has this: The term EC50 means the concentration of the test compound that elicits half-maximal (50 %) stimulation compared to the compound's maximally attainable effect. The values can be determined e.g. in a cell line transfected with a FSH receptor gene and cotransfected with a cAMP responsive element/promoter directing the expression of a reporter gene. Values can be determined using a software program such as MathIQ (version 2.0, ID Business Solutions Limited).
Agonistic activity of the compounds at the human FSH receptor was determined in Chinese Hamster Ovary (CHO) cells stably transfected with the human FSH receptor and cotransfected with a cAMP responsive element (CRE)/promotor directing the expression of a firefly luciferase reporter gene. Binding of the compounds to the Gs protein-coupled FSH receptor will result in an increase of cAMP, which in turn will induce an increased transactivation of the luciferase reporter. Cells (7,500 cells/well of a 384 well plate) were incubated in Dulbecco' minimal essential F12 modified medium (Invitrogen), supplemented with 1 µg/ml bovine insulin, 5 µg/ml human apo-transferrin, 80 U/ml penicillin G and 80 µg/ml streptomycin with the test compounds (concentration between 0.0316 nM and 10.0 µM) in duplicate in a humidified atmosphere (95%) at 5-7% CO2 and 37°C. The final concentration of DMSO was 1%. After 4 hours of incubation, plates were allowed to adjust to room temperature for 1 hour. Then, Luclite (PerkinElmer) solution was added to the wells and cells were allowed to lyse for at least 1 hour at room temperature. Subsequently, luciferase activity was measured in a luminescence counter. The signal is expressed as counts per second (cps). The EC50 (concentration of the test compound that elicits half-maximal (50 %) luciferase stimulation compared to the compound's maximally attainable effect) and efficacy values (maximal effect of the test compound as percentage of the maximal effect of recombinant human FSH) of the compounds were determined using the software program MathIQ (version 2.0, ID Business Solutions Limited). EC50 data are indicated at the synthesis examples.
For orientation: In a reporter assay the amount or activity of a reporter protein is the signal.
As for `COc1cc2c(cc1OC(C)C)-c1c(-c3cccs3)nc(C(=O)N3CC4CC(CN(C(C)=O)C4)C3)n1CC2` [Example 29c, 1-[7-(9-Isopropoxy-8-methoxy-1-thiophen-2-yl-5,6-dihydro-imidazo[5,1-a]isoquinoline-3-carbonyl)-3,7-diaza-bicyclo[3.3.1]non-3-yl]-ethanone], the EC50 (as a rule, the concentration giving half of the maximal effect) was 21 nM.
Then `COc1cc2c(cc1OC(C)C)-c1c(-c3cccs3)nc(C(=O)N3CC4CC(C3)CN(C(=O)C3CCC3)C4)n1CC2` [Example 29d, (7-Cyclobutanecarbonyl-3,7-diaza-bicyclo[3.3.1]non-3-yl)-(9-isopropoxy-8-methoxy-1-thiophen-2-yl-5,6-dihydro-imidazo[5,1-a]isoquinolin-3-yl)-methanone], with 5 nM; and `COc1cc2c(cc1OCCO)-c1c(-c3cccs3)nc(C(=O)N(C)C(C)(C)C)n1CC2` [Example 30c, 9-(2-Hydroxy-ethoxy)-8-methoxy-1-thiophen-2-yl-5,6-dihydro-imidazo[5,1-a]isoquinoline-3-carboxylic acid tert-butyl-methyl-amide], with 7 nM; and `COc1cc2c(cc1OCCN=[N+]=[N-])-c1c(-c3cccs3)nc(C(=O)N(C)C(C)(C)C)n1CC2` [Example 30e, 9-(2-Azido-ethoxy)-8-methoxy-1-thiophen-2-yl-5,6-dihydro-imidazo[5,1-a]isoquinoline-3-carboxylic acid tert-butyl-methyl-amide], with 15 nM.
To `COc1cc2c(cc1OCCN)-c1c(-c3cccs3)nc(C(=O)N(C)C(C)(C)C)n1CC2` [Example 31, 9-(2-Amino-ethoxy)-8-methoxy-1-thiophen-2-yl-5,6-dihydro-imidazo[5,1-a]isoquinoline-3-carboxylic acid tert-butyl-methyl-amide] belongs 94 nM.
To `COc1cc2c(cc1OCCNC(C)=O)-c1c(-c3cccs3)nc(C(=O)N(C)C(C)(C)C)n1CC2` [Example 32, 9-(2-Acetylamino-ethoxy)-8-methoxy-1-thiophen-2-yl-5,6-dihydro-imidazo[5,1-a]isoquinoline-3-carboxylic acid tert-butyl-methyl-amide] belongs 559 nM; to `COC(=O)NCCOc1cc2c(cc1OC)CCn1c(C(=O)N(C)C(C)(C)C)nc(-c3cccs3)c1-2` [Example 33, {2-[3-(tert-Butyl-methyl-carbamoyl)-8-methoxy-1-thiophen-2-yl-5,6-dihydro-imidazo[5,1-a]isoquinolin-9-yloxy]-ethyl}-carbamic acid methyl ester], 142 nM.
In the case of `CCN(C(=O)c1nc(-c2cccs2)c2n1CCc1cc(OC)c(OCCO)cc1-2)C(C)(C)C` [Example 34b, 9-(2-Hydroxy-ethoxy)-8-methoxy-1-thiophen-2-yl-5,6-dihydro-imidazo[5,1-a]isoquinoline-3-carboxylic acid tert-butyl-ethyl-amide], the EC50 stood at 3 nM.
Then `COCOc1cc2c(cc1OC)CCn1c(C(=O)N(C)C(C)(C)C)nc(-c3cccs3)c1-2` [Example 35b, 8-Methoxy-9-methoxymethoxy-1-thiophen-2-yl-5,6-dihydro-imidazo[5,1-a]isoquinoline-3-carboxylic acid tert-butyl-methyl-amide], with 19 nM; and `COc1cc2c(cc1C=C(C)C)-c1c(-c3cccs3)nc(C(=O)N(C)C(C)(C)C)n1CC2` [Example 36c, 8-Methoxy-9-(2-methyl-propenyl)-1-thiophen-2-yl-5,6-dihydro-imidazo[5,1-a]isoquinoline-3-carboxylic acid tert-butyl-methyl-amide], with 2 nM; and `COc1cc2c(cc1CC(C)C)-c1c(-c3ncco3)nc(C(=O)N(C)C(C)(C)C)n1CC2` [Example 37f, 9-Isobutyl-8-methoxy-1-oxazol-2-yl-5,6-dihydro-imidazo[5,1-a]isoquinoline-3-carboxylic acid tert-butyl-methyl-amide], with 380 nM.
To `COc1cc2c(cc1CC(C)C)-c1c(-c3cncs3)nc(C(=O)N(C)C(C)(C)C)n1CC2` [Example 38, 9-Isobutyl-8-methoxy-1-thiazol-5-yl-5,6-dihydro-imidazo[5,1-a]isoquinoline-3-carboxylic acid tert-butyl-methyl-amide] belongs 13 nM; to `COc1cc2c(cc1C=C(F)F)-c1c(-c3cccs3)nc(C(=O)N(C)C(C)(C)C)n1CC2` [Example 39, 9-(2,2-Difluoro-vinyl)-8-methoxy-1-thiophen-2-yl-5,6-dihydro-imidazo[5,1-a]isoquinoline-3-carboxylic acid tert-butyl-methyl-amide], 22 nM; to `CCOc1ccc2c(c1)CCn1c(C(=O)N(C)C(C)(C)C)nc(-c3cccs3)c1-2` [Example 40c, 8-Ethoxy-1-thiophen-2-yl-5,6-dihydro-imidazo[5,1-a]isoquinoline-3-carboxylic acid tert-butyl-methyl-amide], 417 nM.
`COc1cc2c(cc1CCC(C)(C)O)-c1c(-c3cccs3)nc(C(=O)N(C)C(C)(C)C)n1CC2` [Example 41c, 9-(3-Hydroxy-3-methyl-butyl)-8-methoxy-1-thiophen-2-yl-5,6-dihydro-imidazo[5,1-a]isoquinoline-3-carboxylic acid tert-butyl-methyl-amide]: the EC50 stood at 191 nM.
Then `COc1cc2c(cc1Oc1ccccc1)-c1c(-c3cccs3)nc(C(=O)N(C)C(C)(C)C)n1CC2` [Example 42b, 8-Methoxy-9-phenoxy-1-thiophen-2-yl-5,6-dihydro-imidazo[5,1-a]isoquinoline-3-carboxylic acid tert-butyl-methyl-amide], with 128 nM; and `COc1cccc(Oc2cc3c(cc2OC)CCn2c(C(=O)N(C)C(C)(C)C)nc(-c4cccs4)c2-3)c1` [Example 43b, 8-Methoxy-9-(3-methoxy-phenoxy)-1-thiophen-2-yl-5,6-dihydro-imidazo[5,1-a]isoquinoline-3-carboxylic acid tert-butyl-methyl-amide], with 447 nM; and `COc1cc2c(cc1-c1cccnc1)-c1c(C(C)(C)C)nc(C(=O)N(C)C(C)(C)C)n1CC2` [Example 44e, 1-tert-Butyl-8-methoxy-9-pyridin-3-yl-5,6-dihydro-imidazo[5,1-a]isoquinoline-3-carboxylic acid tert-butyl-methyl-amide], with 33 nM.
In the case of `COc1cc2c(cc1N1CCOCC1)-c1c(-c3cccs3)nc(C(=O)N(C)C(C)(C)C)n1CC2` [Example 45, 8-Methoxy-9-morpholin-4-yl-1-thiophen-2-yl-5,6-dihydro-imidazo[5,1-a]isoquinoline-3-carboxylic acid tert-butyl-methyl-amide], the EC50 came out at 113 nM.
In the case of `COc1cc2c(cc1NC(=O)C(C)C)-c1c(-c3cccs3)nc(C(=O)N(C)C(C)(C)C)n1CC2` [Example 46, 9-Isobutyrylamino-8-methoxy-1-thiophen-2-yl-5,6-dihydro-imidazo[5,1-a]isoquinoline-3-carboxylic acid tert-butyl-methyl-amide], the EC50 is 148 nM.
To `COc1cc2c(cc1OC(C)C)-c1c(-c3cncs3)nc(C(=O)N(C)C(C)(C)C)n1CC2` [Example 47e, 9-Isopropoxy-8-methoxy-1-thiazol-5-yl-5,6-dihydro-imidazo[5,1-a]isoquinoline-3-carboxylic acid tert-butyl-methyl-amide] belongs 6 nM; to `COc1cc2c(c(F)c1CC(C)C)-c1c(-c3cccs3)nc(C(=O)N(C)C(C)(C)C)n1CC2` [Example 48j, 10-Fluoro-9-isobutyl-8-methoxy-1-thiophen-2-yl-5,6-dihydro-imidazo[5,1-a]isoquinoline-3-carboxylic acid tert-butyl-methyl-amide], 7 nM.
